US20150045610A1, “METHOD OF MODIFYING SPERMATOGENESIS, SPERMIOGENESIS AND/OR FERTILITY IN MAMMALS” (Monell Chemical Senses Center, priority 2012, published 2015)

Key:
humanized mhT1R3 = biological target: T1, humanized mhT1R3 (Homo sapiens, UniProt Q7RTX0, A109T/A120V/A176D/A197V/A198V/A228S/A231N/A248T/A280V/A282S/A302S/A412V/A417V/A46T/A537T/C375D/D124S/D249S/D250G/D364H/D419E/D470T/D491G/D88A/DEL352-352/DEL488-489/E172D/E199T/E203N/E217D/E356N/E45S/E481Q/E505D/E525K/E545Q/F540P/F555L/G168S/G205S/G311T/G314N/G355L/G360D/G414H/G438R/G439D/G463S/G50T/G542N/H261R/H278R/H281Y/H332P/I485M/I536F/INS376MLQNLSSG/K32Q/K339E/K422L/K494V/K86G/L173R/L245Q/L272V/L29F/L354S/L385Q/L433M/L458M/L483S/L71F/L74M/M151L/M315I/M318V/M31A/N285S/N386L/N532H/N68L/P112S/P246H/P335S/P416H/P420H/P441T/P60I/Q221E/Q257L/Q317R/Q330L/Q336H/Q359L/Q372R/Q418S/Q504K/Q531K/R123Q/R247D/R252Q/R291G/R30K/R357A/R443Q/R467V/R473T/R479Q/R482Q/R486Y/R498Q/R52N/R550K/R553A/R556P/R560K/R56Q/S251Q/S267K/S289H/S290H/S392A/S446A/S447E/S464P/S477T/S490P/S53Q/S559P/S58N/S67P/T195Q/T346A/T377L/T390I/T434S/T480L/T63N/V152I/V277A/V366M/V36I/V381L/V393T/V437A/V465T/V61P/W72L); assay: sweet taste preference of transgenic mice expressing humanized T1R3; type: in vivo, mouse
T1 construct: the extracellular domain is of mouse origin and the transmembrane and intracellular domains of human origin; mouse T1R3 extracellular domain (fusion partner replacing the human extracellular domain); expressed in transfected cells; host or cells: transgenic mice (Line 7, 9, 7c) on T1R3-null background; transgene under 13 kb T1R3 promoter, followed by IRES-eGFP
T1 sequence (Q7RTX0 with tags, fused parts or gaps L29F/R30K/M31A/K32Q/V36I/E45S/A46T/G50T/R52N/S53Q/R56Q/S58N/P60I/V61P/T63N/S67P/N68L/L71F/W72L/L74M/K86G/D88A/A109T/P112S/A120V/R123Q/D124S/M151L/V152I/G168S/E172D/L173R/A176D/T195Q/A197V/A198V/E199T/E203N/G205S/E217D/Q221E/A228S/A231N/L245Q/P246H/R247D/A248T/D249S/D250G/S251Q/R252Q/Q257L/H261R/S267K/L272V/V277A/H278R/A280V/H281Y/A282S/N285S/S289H/S290H/R291G/A302S/G311T/G314N/M315I/Q317R/M318V/Q330L/H332P/P335S/Q336H/K339E/T346A/DEL352-352/L354S/G355L/E356N/R357A/Q359L/G360D/D364H/V366M/Q372R/C375D/INS376MLQNLSSG/T377L/V381L/L385Q/N386L/T390I/S392A/V393T/A412V/G414H/P416H/A417V/Q418S/D419E/P420H/K422L/L433M/T434S/V437A/G438R/G439D/P441T/R443Q/S446A/S447E/L458M/G463S/S464P/V465T/R467V/D470T/R473T/S477T/R479Q/T480L/E481Q/R482Q/L483S/I485M/R486Y/DEL488-489/S490P/D491G/K494V/R498Q/Q504K/E505D/E525K/Q531K/N532H/I536F/A537T/F540P/G542N/E545Q/R550K/R553A/F555L/R556P/S559P/R560K limits assumed): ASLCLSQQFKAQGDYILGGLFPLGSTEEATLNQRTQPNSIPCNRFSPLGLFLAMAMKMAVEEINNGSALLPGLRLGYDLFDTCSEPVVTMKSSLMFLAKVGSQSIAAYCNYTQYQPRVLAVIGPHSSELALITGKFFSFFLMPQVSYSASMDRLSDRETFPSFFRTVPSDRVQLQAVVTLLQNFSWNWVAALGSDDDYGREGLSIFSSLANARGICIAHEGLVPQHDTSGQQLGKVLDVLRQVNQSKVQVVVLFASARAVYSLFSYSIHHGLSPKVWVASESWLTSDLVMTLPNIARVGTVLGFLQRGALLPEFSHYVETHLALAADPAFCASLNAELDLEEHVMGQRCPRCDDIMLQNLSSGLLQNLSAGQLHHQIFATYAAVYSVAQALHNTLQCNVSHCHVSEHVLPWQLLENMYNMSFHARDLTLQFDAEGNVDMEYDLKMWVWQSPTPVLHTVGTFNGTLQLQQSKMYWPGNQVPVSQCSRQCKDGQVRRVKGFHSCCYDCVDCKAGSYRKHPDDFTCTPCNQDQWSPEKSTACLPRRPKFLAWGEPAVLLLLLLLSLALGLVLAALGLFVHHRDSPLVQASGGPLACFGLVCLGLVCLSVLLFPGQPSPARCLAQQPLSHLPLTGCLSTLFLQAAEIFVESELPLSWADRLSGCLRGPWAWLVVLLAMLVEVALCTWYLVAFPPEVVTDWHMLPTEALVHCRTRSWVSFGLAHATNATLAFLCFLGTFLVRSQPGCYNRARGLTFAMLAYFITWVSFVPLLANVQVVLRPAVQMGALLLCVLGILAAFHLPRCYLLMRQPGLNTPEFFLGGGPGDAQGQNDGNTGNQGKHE
T1 sequence (Q925I4 20-843 partner): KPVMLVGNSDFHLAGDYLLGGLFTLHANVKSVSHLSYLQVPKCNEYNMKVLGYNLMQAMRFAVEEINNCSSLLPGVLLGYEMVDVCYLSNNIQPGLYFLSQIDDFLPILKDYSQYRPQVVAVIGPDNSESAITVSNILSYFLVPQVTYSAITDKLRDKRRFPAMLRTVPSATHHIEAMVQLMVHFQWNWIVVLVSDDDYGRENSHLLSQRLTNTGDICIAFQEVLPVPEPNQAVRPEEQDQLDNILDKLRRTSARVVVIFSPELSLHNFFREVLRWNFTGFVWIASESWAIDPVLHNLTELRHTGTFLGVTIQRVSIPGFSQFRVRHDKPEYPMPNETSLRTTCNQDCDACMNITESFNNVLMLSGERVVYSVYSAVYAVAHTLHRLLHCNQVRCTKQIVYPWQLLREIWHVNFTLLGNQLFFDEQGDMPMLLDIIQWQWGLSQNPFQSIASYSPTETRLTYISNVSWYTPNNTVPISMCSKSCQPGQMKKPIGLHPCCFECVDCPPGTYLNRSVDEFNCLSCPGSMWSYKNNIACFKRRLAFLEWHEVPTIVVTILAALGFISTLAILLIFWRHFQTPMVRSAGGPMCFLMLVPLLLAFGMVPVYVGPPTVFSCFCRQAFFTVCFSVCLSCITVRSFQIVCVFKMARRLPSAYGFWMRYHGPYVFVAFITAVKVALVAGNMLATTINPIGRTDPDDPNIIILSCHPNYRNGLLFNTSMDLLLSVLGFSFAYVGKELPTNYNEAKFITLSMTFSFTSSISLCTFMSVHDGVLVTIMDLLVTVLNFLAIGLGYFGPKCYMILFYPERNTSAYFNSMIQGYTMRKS
Protocol: We used the chimeric mhT1R3 receptor to produce conventional transgenic animals. The DNA construct was injected into a genetically engineered mouse line that lacks endogenous T1R3 (T1R3KO or T1R3-null). […] We call these mice Line7.
For further crosses, we used the line 7 that has fewer copies of the transgene.
Such compounds may be produced normally in organs (e.g. in testis) or chemically synthesized.

human T1R3 receptor = biological target: T2, human T1R3 receptor (Homo sapiens, UniProt Q7RTX0); settings: cited from earlier work
T2 construct: expressed in transfected cells
T2 sequence (Q7RTX0 21-852): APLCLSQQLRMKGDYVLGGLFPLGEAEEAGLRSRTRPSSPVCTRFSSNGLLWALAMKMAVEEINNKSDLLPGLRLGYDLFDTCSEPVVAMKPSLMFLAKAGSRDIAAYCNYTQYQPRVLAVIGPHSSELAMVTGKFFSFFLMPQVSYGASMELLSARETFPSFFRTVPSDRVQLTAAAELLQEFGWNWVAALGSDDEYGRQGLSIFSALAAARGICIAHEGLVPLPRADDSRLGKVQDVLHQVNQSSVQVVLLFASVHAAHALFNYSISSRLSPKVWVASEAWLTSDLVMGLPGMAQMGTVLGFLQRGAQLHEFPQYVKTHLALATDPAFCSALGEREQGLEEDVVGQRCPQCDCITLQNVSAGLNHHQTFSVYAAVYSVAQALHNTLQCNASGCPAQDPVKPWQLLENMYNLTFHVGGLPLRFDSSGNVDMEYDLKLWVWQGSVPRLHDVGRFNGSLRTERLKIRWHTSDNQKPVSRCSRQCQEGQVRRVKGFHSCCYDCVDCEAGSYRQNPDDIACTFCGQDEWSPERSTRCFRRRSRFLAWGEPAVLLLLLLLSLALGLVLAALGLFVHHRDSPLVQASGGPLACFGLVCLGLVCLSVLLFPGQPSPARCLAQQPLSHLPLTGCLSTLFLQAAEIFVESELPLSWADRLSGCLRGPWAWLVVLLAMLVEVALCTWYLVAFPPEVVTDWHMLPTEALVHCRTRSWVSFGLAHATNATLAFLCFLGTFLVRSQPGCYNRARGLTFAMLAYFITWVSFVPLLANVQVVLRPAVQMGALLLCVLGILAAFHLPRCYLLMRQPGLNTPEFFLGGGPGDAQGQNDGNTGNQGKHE
T2 sequence (Q8TE23 20-839 partner): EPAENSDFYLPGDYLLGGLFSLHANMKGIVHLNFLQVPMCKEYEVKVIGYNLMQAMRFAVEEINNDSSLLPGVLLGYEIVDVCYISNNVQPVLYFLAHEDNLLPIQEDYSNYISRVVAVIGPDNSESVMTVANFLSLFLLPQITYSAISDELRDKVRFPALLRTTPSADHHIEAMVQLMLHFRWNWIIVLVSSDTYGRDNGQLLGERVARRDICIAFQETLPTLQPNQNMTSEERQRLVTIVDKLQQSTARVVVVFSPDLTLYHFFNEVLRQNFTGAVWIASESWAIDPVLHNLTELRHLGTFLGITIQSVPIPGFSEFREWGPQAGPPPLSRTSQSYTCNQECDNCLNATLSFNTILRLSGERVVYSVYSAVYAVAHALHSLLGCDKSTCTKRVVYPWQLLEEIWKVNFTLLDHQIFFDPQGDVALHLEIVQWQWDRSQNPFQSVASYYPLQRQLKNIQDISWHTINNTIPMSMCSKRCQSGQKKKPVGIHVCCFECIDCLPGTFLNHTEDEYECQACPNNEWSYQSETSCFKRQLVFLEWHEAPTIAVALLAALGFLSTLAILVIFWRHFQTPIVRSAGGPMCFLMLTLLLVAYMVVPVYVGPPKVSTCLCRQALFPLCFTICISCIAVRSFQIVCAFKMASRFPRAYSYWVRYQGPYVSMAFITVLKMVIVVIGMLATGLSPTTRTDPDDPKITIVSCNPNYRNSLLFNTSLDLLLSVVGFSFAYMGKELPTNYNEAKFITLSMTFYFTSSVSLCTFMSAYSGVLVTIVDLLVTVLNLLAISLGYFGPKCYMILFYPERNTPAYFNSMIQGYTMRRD

PDE = PDE pharmacological block with theophylline in drinking water
[1] = lines 7, 9, 7c expressing humanized receptor

CC(Oc1ccc(Cl)cc1Cl)C(=O)O (centres unmarked) [2,4-DP, 2-(2,4-dichlorophenoxyl) propionic acid]
sweet preference of Line 7 mice (humanized mhT1R3; 0.2 mM 2,4-DP): blocked | sweet responses of the transgenic animals (humanized mhT1R3; [1]): even more powerful inhibitor

CC(C)(Oc1ccc(CCNC(=O)c2ccc(Cl)cc2)cc1)C(=O)O [bezafibric acid]
T1R3 inhibition compared with PPAR-α activation (human T1R3 receptor): comparable to their activation of PPAR-α

OC[C@H]1O[C@H](O[C@]2(CCl)O[C@H](CCl)[C@@H](O)[C@@H]2O)[C@H](O)[C@@H](O)[C@H]1Cl [sucralose]
preference of transgenic animals for sweetener (humanized mhT1R3; [1]): modest preference

OC[C@H]1O[C@@](CO)(O[C@H]2O[C@H](CO)[C@@H](O)[C@H](O)[C@H]2O)[C@@H](O)[C@@H]1O [sucrose]
preference of transgenic animals for sweetener (humanized mhT1R3; [1]): strong preference

Cn1c(=O)c2[nH]cnc2n(C)c1=O [theophylline]
testis pathology (PDE; T1R3-null animals, theophylline, compared with clofibrate-treated animals): similar, although milder, pathology | pathology in testis after single block (PDE; control genotypes, theophylline alone, preliminary): no detectable pathology in testis | adverse effect on health and behavior (PDE; theophylline-treated animals): no obvious adverse effect
